The values that follow come from US11584744B2 (UNIVERSITY OF WASHINGTON, priority 2017, dated 2023).

≈ marks a conversion by molar mass, not a printed value. Where “and” joins values, the source holds several entries; their conditions need not be identical. Equal entries are not always repeated. Where two headings read alike, the source gives them in different places. A value given as a limit tells only on which side of the number the result lay.

Test [1] concerns the target recombinant S. aureus MetRS enzyme (Staphylococcus aureus, UniProt A0A0H2XID2). The test can be described thus: Inhibition of SaMetRS, ATP depletion assay. The class given is biochemical. As to conditions: read-out: (B) MetRS (S. aureus) IC50. The method, then: Production of recombinant S. aureus MetRSs. The SaMetRS gene (UniProtKB—A0A0H2XID2) was PCR amplified (Sense 5′-[…]-3′ (SEQ ID NO: 1) and Antisense 5′-[…]-3′ (SEQ ID NO:2)) from genomic DNA isolated from S. aureus (ATCC 29213) cultures. The PCR product was then cloned into the AVA0421 plasmid and sequence verified. The expression of recombinant protein was performed as previously described. The N-terminal 6-His fusion proteins were purified by nickel affinity chromatography followed by size exclusion gel chromatography (Superdex 75 26/60; GE Biosciences, Piscataway, N.J.).
Enzyme assays. Inhibition of SaMetRS was measured using the ATP depletion assay as previously described with some modifications. Compounds were pre-incubated for 15 minutes at room temperature in a 96-well plate with 400 μg/mL bulk E. coli tRNA, 25 nM SaMetRS, 0.1 U/mL pyrophosphatase, 0.2 mM spermine, 0.1 mg/mL bovine serum albumin, 2.5 mM dithiothreitol, 25 mM HEPES-KOH pH 7.9, 10 mM MgCl2, 50 mM KCl, and 2% DMSO. Reagents were purchased from Sigma-Aldrich or Roche. The reaction was started with the addition of 150 nM ATP and 20 μM L-methionine and after 120 minute incubation was stopped by the addition of an equal volume (50 μL) of Kinase-Glo® (Promega). Percent inhibition=100×(test compound−AVG low control)/(AVG high control−AVG low control) where the low control is all reagents except the compound and the high control is all reagents except the compounds and L-methionine. IC50 values were calculated by non-linear regression, sigmoidal-dose response, in Prism 3.0.

Test [2] addresses T1, MetRS (T. brucei) (Trypanosoma brucei brucei, UniProt Q38C91).
T1 sequence (Q38C91 1-773): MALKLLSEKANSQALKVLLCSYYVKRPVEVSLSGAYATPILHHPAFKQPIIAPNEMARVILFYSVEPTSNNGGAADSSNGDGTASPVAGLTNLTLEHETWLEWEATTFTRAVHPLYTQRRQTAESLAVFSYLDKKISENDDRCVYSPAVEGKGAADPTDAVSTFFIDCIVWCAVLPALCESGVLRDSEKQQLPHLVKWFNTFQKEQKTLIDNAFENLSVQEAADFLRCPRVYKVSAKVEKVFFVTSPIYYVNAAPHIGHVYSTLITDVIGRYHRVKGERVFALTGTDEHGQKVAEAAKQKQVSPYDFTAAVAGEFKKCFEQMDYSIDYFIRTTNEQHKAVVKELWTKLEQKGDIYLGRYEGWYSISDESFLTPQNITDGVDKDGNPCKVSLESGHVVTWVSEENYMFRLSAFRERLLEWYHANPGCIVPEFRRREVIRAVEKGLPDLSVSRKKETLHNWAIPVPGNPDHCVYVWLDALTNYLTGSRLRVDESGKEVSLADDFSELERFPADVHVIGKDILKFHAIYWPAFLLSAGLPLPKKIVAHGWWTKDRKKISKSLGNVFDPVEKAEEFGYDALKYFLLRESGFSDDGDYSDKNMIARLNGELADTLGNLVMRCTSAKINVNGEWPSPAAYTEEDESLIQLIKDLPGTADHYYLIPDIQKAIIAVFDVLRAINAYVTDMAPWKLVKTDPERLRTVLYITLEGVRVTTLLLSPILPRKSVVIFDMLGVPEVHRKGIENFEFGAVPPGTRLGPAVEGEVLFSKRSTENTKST
In words: MetRS (T. brucei) enzyme inhibition. The format is biochemical.

In test [3] the test system is T. cruzi. In words: T. cruzi growth inhibition. The format is cell-based, Trypanosoma cruzi. As to conditions: read-out: (E) T. cruzi EC50.
In test [4] the test system is S. aureus MSSA (ATCC 29213). In words: MIC susceptibility testing. The class given is cell-based, Staphylococcus aureus. The settings on record: S. aureus ATCC 29213; for MIC: Staphylococcus aureus, read-out: (F) S. aureus (ATCC 29213) MIC.
The test system of test [5] is S. aureus MRSA (ATCC 33591). The test can be described thus: MIC susceptibility testing. The format is cell-based, Staphylococcus aureus. As to conditions: Staphylococcus aureus, MRSA ATCC33591; read-out: (G) MRSA (ATCC33591) MIC. A digest of the protocol: (§1)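 CLSI broth microdilution with two-fold compound dilutions, in triplicate; cells added in medium at 1×10^6 CFUs/mL, DMSO ≤0.5%. Media: MHB for S. aureus, CA-MHB for E. coli and E. faecium, CA-MHB plus 3% laked horse blood for S. pyogenes (5% CO2).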

In test [6] the target is MetRS (C. parvum) (Cryptosporidium parvum, UniProt Q5CVN0). The test can be described thus: MetRS (C. parvum) enzyme inhibition. The settings on record: read-out: (C) MetRS (C. parvum) IC50. The class given is biochemical.
The subject of test [7] is T. brucei. The test can be described thus: T. brucei growth inhibition. The class given is cell-based, Trypanosoma brucei. The settings on record: read-out: (D) T. brucei EC50.
For test [8], the system named is C. parvum. In words: C. parvum growth inhibition. The class given is cell-based, Cryptosporidium parvum. As to conditions: Cryptosporidium parvum; read-out: (J) C. parvum EC50.
In test [9] the test system is E. faecium VRE (ATCC 51559). The test can be described thus: MIC susceptibility testing. The format is cell-based, Enterococcus faecium. As to conditions: E. faecium ATCC 51559; for MIC: Enterococcus faecium, read-out: (I) E. faecium (ATCC 51559) MIC. In outline: as §1

MetRS (C. parvum), sequence (Q5CVN0 entry or part of it): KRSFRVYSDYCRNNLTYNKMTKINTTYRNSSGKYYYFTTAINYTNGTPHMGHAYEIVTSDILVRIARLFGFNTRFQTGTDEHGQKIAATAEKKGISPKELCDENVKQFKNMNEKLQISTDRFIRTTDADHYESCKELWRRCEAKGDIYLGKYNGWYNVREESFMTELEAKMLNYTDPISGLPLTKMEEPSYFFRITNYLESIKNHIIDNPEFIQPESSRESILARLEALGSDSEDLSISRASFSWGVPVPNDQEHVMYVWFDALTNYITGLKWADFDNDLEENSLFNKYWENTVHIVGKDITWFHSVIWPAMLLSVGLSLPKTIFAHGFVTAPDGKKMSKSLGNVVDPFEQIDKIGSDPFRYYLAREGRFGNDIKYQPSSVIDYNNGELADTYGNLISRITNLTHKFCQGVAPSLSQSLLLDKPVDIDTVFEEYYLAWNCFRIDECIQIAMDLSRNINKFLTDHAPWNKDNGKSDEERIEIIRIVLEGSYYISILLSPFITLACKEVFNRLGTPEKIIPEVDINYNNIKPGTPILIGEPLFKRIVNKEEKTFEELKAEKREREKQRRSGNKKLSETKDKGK
recombinant S. aureus MetRS enzyme, sequence (A0A0H2XID2 2-657): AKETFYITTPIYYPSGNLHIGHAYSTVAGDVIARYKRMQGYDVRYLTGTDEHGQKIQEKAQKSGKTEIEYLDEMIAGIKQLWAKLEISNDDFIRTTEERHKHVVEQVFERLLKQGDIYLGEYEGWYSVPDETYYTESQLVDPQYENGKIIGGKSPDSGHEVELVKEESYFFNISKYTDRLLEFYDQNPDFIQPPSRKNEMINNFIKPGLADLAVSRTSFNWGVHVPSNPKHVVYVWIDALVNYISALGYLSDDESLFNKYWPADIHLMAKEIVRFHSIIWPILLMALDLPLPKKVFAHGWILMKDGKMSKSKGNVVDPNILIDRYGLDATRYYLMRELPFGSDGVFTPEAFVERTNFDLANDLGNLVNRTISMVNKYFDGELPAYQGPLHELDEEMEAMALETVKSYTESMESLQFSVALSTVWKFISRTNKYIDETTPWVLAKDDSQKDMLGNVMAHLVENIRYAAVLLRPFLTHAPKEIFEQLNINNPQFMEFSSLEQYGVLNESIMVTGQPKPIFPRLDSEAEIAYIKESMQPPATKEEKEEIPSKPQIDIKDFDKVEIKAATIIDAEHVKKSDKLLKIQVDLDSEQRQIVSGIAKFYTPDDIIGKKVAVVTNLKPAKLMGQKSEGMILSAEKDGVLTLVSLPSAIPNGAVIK

Regarding `O=c1n(Cc2nc3ccc(F)nc3[nH]2)cc(Cc2ccc(Cl)cc2Cl)n1CC1CCOCC1` [Compound 2087, 4-[(2,4-dichlorophenyl)methyl]-1-({5-fluoro-1H-imidazo[4,5-b]pyridin-2-yl}methyl)-3-[(oxan-4-yl)methyl]-2,3-dihydro-1H-imidazol-2-one], the IC50 is under 25 nM in test [1], under 40 nM in test [2] and under 40 nM in test [6]. Further, the EC50 in test [3] (Trypanosoma cruzi) amounted to 359 nM. Further, the MIC in [4] stood at 0.254 µg/mL (≈ 0.518 µM); in test [5], 1.67 µg/mL (≈ 3.41 µM).

For the molecule `CS(=O)(=O)c1nc(Cc2ccc(Cl)cc2Cl)cn1Cc1nc2ccc(F)nc2[nH]1` [Compound 2105, 4-[(2,4-dichlorophenyl)methyl]-1-({5-fluoro-1H-imidazo[4,5-b]pyridin-2-yl}methyl)-2-methanesulfonyl-1H-imidazole], the IC50 in test [1] is under 25 nM; in test [2] it was under 40 nM; in test [6] it was 109 nM. In addition, the EC50 came to 867 nM in test [3] (Trypanosoma cruzi) and 71.5 nM in test [7] (Trypanosoma brucei). Besides, in test [4], the minimum inhibitory concentration (MIC) turned out to be 2.15 µg/mL (≈ 4.73 µM).

Regarding `CS(=O)(=O)c1nc(Cc2ccc(Cl)cc2Cl)cn1Cc1nc2nc(Cl)ccc2[nH]1` [Compound 2111, 1-({5-chloro-1H-imidazo[4,5-b]pyridin-2-yl}methyl)-4-[(2,4-dichlorophenyl)methyl]-2-methanesulfonyl-1H-imidazole], the IC50 in test [1] is under 25 nM; in test [2] it was under 40 nM; in test [6] it was 146 nM. Besides, the EC50 in test [3] (Trypanosoma cruzi) amounted to 445 nM; in [7] (Trypanosoma brucei), 54.6 nM. In addition, in test [4], the MIC turned out to be 1.25 µg/mL (≈ 2.66 µM).

Regarding `COc1cc(-c2cccc3nc(Cc4nc5nc(F)ccc5[nH]4)cn23)c(Cl)cc1Cl` [Compound 2129, 5-(2,4-dichloro-5-methoxyphenyl)-2-({5-fluoro-1H-imidazo[4,5-b]pyridin-2-yl}methyl)imidazo[1,2-a]pyridine], the IC50 in [1] is under 25 nM; in test [2], under 40 nM; in [6], under 40 nM. Moreover, the EC50 is 102 nM in test [3] (Trypanosoma cruzi) and 82 nM in test [3].

For the molecule `COc1cc(Cl)c(-c2cccc3nc(Cc4nc5nc(F)ccc5[nH]4)cn23)cc1OC` [Compound 2145, 5-(2-chloro-4,5-dimethoxyphenyl)-2-({5-fluoro-1H-imidazo[4,5-b]pyridin-2-yl}methyl)imidazo[1,2-a]pyridine], the IC50 was under 25 nM in [1], under 40 nM in test [2] and 74.7 nM in test [6]. Also, the figures for the EC50 in test [3] (Trypanosoma cruzi), in test [3] and in test [8] were 66.7 nM, 129 nM and over 2000 nM, respectively.

For `COc1cc(Cl)c(-c2cnn3c2CN(Cc2nc4nc(Cl)ccc4[nH]2)CC3)cc1OC` [Compound 2205, 5-chlor0-2-((3-(2-chloro-4,5-dimethoxyphenyl)-6,7-dihydropyrazolo[1,5-a]pyrazin-5(4H)-yl)methyl)-1H-imidazo[4,5-b]pyridine], the half-maximal inhibitory concentration (IC50) in test [2] is under 40 nM; in test [6], 65.2 nM. Moreover, the EC50 in test [3] (Trypanosoma cruzi) is 109 nM; in test [7] (Trypanosoma brucei) it was 12.4 nM; in test [8], over 2000 nM. In test [4], the “(F) S. aureus (ATCC 29213) MIC” value was 0.441, μg/ml and 0.450 μg/ml. Besides, the MIC in test [4] came to 0.652 µg/mL (≈ 1.42 µM); in test [5] it was 0.265 µg/mL (≈ 0.577 µM); in [9], 0.0839 µg/mL (≈ 0.183 µM).

On to `CCn1c(Cc2ccc(Cl)cc2Cl)cn(Cc2nc3ccc(Cl)c(C#N)c3[nH]2)c1=O` [Compound 2210, 6-chlor0-2-({4-[(2,4-dichlorophenyl)methyl]-3-ethyl-2-oxo-2,3-dihydro-1H-imidazol-1-yl}methyl)-1H-1,3-benzodiazole-7-carbonitrile], for which the IC50 in [2] and in [6] was under 40 nM throughout. The EC50 was 108 nM in test [3] (Trypanosoma cruzi), 6.72 nM in [7] (Trypanosoma brucei) and over 2000 nM in test [8]. The MIC in [4] was determined as 0.285 µg/mL (≈ 0.619 µM); in test [5], 0.298 µg/mL (≈ 0.647 µM); in test [9], 0.166 µg/mL (≈ 0.36 µM).

On to `CC(C)(O)Cn1c(Cc2ccc(Cl)cc2Cl)cn(Cc2nc3ccc(Cl)nc3[nH]2)c1=O` [Compound 2211, 1-((5-chloro-3H-imidazo[4,5-b]pyridin-2-yl)methyl)-4-(2,4-dichlorobenzyl)-3-(2-hydroxy-2-methylpropyl)-1,3-dihydro-2H-imidazol-2-one], for which the IC50 was under 40 nM in test [2] and 50.2 nM in test [6]. Besides, the concentration giving a half-maximal response (EC50) in [3] (Trypanosoma cruzi) was 21.7 nM; in [3], 22.1 nM; in test [7] (Trypanosoma brucei), under 0.91 nM; in [7] it was 1.16 nM; in test [8], 1170 nM. For the same molecule, the “(F) S. aureus (ATCC 29213) MIC” value in [4] stood at 0.590 µg/mL. In addition, the MIC turned out to be 0.493 µg/mL (≈ 1.03 µM) in test [4], 0.489 µg/mL (≈ 1.02 µM) in [5] and 0.389 µg/mL (≈ 0.809 µM) in test [9]. In addition, the “(I) E. faecium (ATCC 51559) MIC” value in test [9] worked out at 0.281 µg/mL.

Turning to `O=c1n(Cc2nc3ccc(Cl)nc3[nH]2)cc(Cc2ccc(Cl)cc2Cl)n1CCO` [Compound 2213, 1-({5-chloro-1H-imidazo[4,5-b]pyridin-2-yl}methyl)-4-[(2,4-dichlorophenyl)-methyl]-3-(2-hydroxyethyl)-2,3-dihydro-1H-imidazol-2-one], the IC50 in [2] and in test [6] was under 40 nM throughout. In addition, the EC50 in test [3] (Trypanosoma cruzi) worked out at 63.4 nM; in [3], 71.3 nM; in test [7] (Trypanosoma brucei), 2.12 nM; in test [8], 1910 nM. The “(F) S. aureus (ATCC 29213) MIC” value in test [4] was determined as 0.574 µg/mL. In addition, the MIC worked out at 0.422 µg/mL (≈ 0.932 µM) in test [4], 0.52 µg/mL (≈ 1.15 µM) in test [5] and 0.272 µg/mL (≈ 0.601 µM) in test [9].

For the molecule `CCOC(=O)Cn1c(C(=O)c2ccc(Cl)cc2Cl)cn(Cc2nc3ccc(Cl)nc3[nH]2)c1=O` [Compound 2215, ethyl 2-[3-({5-chloro-1H-imidazo[4,5-b]pyridin-2-yl}methyl)-5-(2,4-dichlorobenzoyl)-2-oxo-2,3-dihydro-1H-imidazol-1-yl]acetate], the IC50 in test [2] and in [6] was under 40 nM in each case. Moreover, the EC50 in test [3] (Trypanosoma cruzi) was 14.8 nM; in [3], 25.4 nM; in [7] (Trypanosoma brucei), under 0.91 nM; in test [7] it was 0.46 nM; in test [8], over 2000 nM. In addition, the MIC turned out to be 0.298 µg/mL (≈ 0.586 µM) in test [4], 0.26 µg/mL (≈ 0.511 µM) in test [5] and 0.272 µg/mL (≈ 0.535 µM) in test [9].

As to `COc1ccc(-c2cccc3c2CN(Cc2nc4nc(Cl)ccc4[nH]2)C3)c(Cl)c1` [Compound 2224, 5-chlor0-2-((4-(2-chloro-4-methoxyphenyl)isoindolin-2-yl)methyl)-1H-imidazo[4,5-b]pyridine], the results for the IC50 in test [2] and in test [6] were 52 nM and under 40 nM, respectively. The EC50 in [3] (Trypanosoma cruzi) is 174 nM; in test [7] (Trypanosoma brucei) it was 23.7 nM; in [8], over 2000 nM. Further, the “(F) S. aureus (ATCC 29213) MIC” value in test [4] is 1.37 µg/mL. In addition, the results for the MIC in [4], in test [5] and in test [9] were 1.07 µg/mL (≈ 2.52 µM), 1.17 µg/mL (≈ 2.75 µM) and 0.995 µg/mL (≈ 2.34 µM), respectively.
